Ends that are not written are not given here.
Key:
[1] = system: C. michiganensis; assay type: cell-based, Clavibacter michiganensis
[2] = system: Gram-negative bacteria and Gram-positive bacteria; test: MIC assay, range over all tested strains; assay type: cell-based; conditions: purified peptide, 96-well plate, 28 °C, 12 h; range over Gram-negative and Gram-positive strains of Table 4
Description: (§1) The indicator bacteria were inoculated in LB liquid medium (OD600 ≈ 0.8–1.0) and then diluted with the indicator bacteria (OD600 ≈ 0.02–0.05). After that, we added 40 μL of diluted indicator bacteria solution to 96-well titer plates. The AMPs were diluted through a series of concentration gradients, and then an equal volume of peptides was added to the above 96-well plate and incubated at 28 °C for 12 h. […] To determine the time-kill assay, the purified antimicrobial peptide concentration was adjusted to 2× MIC concentration, and then added to a 96-well plate in equal volume with the indicator bacteria, with at least 3 wells for each concentration. After mixing the liquid evenly, it was incubated at 28 °C for 2 h, 4 h, 6 h, 8 h, 10 h, 12 h, and 24 h, and then the OD value was obtained at 600 nm.

[3] = system: C. fangii; assay type: cell-based, Clavibacter fangii
[4] = system: porcine erythrocytes; conditions: 5× MIC, 37 °C, 1 h, absorbance 385 nm, 0.1% Triton X-100 = 100%, PBS = 0%
[5] = system: C. michiganensis; test: Minimum inhibitory concentration (MIC) assay; assay type: cell-based, Clavibacter michiganensis; conditions: purified peptide, 96-well plate, LB, 28 °C, 12 h
Description: as §1

[6] = system: X. oryzae pv. oryzae; assay type: cell-based, Xanthomonas oryzae pv. oryzae; conditions: 20 μL extracellular peptides on filter paper, 28 °C, 5-7 h, mean ± SD, three independent experiments
[7] = system: F. graminearum; assay type: cell-based, Fusarium graminearum; conditions: 200 μL extracellular peptide per well, 28 °C, 2–4 days, vs PBS
[8] = system: Gram-positive and Gram-negative bacteria; assay type: physicochemical
[9] = system: C. michiganensis; assay type: cell-based, Clavibacter michiganensis; remark: listed apart in the source
[10] = system: X. oryzae pv. oryzicola; assay type: cell-based, Xanthomonas oryzae pv. oryzicola; conditions: purified peptide, 96-well plate, LB, 28 °C, 12 h
[11] = system: X. oryzae pv. oryzae; assay type: cell-based, Xanthomonas oryzae pv. oryzae; conditions: X. oryzae pv. oryzae co-incubated with peptide 2 h at 28 °C; MIC concentration
[12] = system: X. oryzae pv. oryzicola; assay type: cell-based, Xanthomonas oryzae pv. oryzicola; conditions: 20 μL extracellular peptides on filter paper, 28 °C, 5-7 h, mean ± SD, three independent experiments
[13] = system: X. campestris pv. Holcicola; test: Minimum inhibitory concentration (MIC) assay; assay type: cell-based, Xanthomonas campestris pv. Holcicola; conditions: purified peptide, 96-well plate, LB, 28 °C, 12 h
Description: as §1

[14] = system: C. fangii; test: Minimum inhibitory concentration (MIC) assay; assay type: cell-based, Clavibacter fangii; conditions: purified peptide, 96-well plate, LB, 28 °C, 12 h
Description: as §1

[15] = system: four tested strains (C. fangii, X. oryzae pv. oryzicola, X. oryzae pv. oryzae, C. michiganensis); assay type: cell-based; conditions: peptides at their MICs, 28 °C, OD 600 nm; after 12 h of treatment
[16] = system: C. michiganensis; test: Pathogenicity assay (control effect on tomato plants); assay type: in vivo, Clavibacter michiganensis; conditions: stem acupuncture inoculation of C. michiganensis mixed with equal volume of peptide at 2× MIC, greenhouse, at 7 d; for Disease Index: letters = differences at p < 0.05; for Control Efficacy (%): relative to PBS buffer group
Description: C. michiganensis was cultured to the logarithmic growth phase, then the pathogenic bacteria were mixed with an equal volume of antimicrobial peptides at 2× MIC, and finally tomato plants were inoculated using the stem acupuncture method. The positive control was mixed with an equal volume of polymyxin B and pathogenic bacteria, and the negative control was mixed with an equal volume of PBS buffer and pathogenic bacteria. After inoculation, the tomato plants were cultured under greenhouse conditions, and the disease incidence was observed and recorded. The equation of disease grading criteria, incidence rate, and disease index are found in Supplementary Method S5. […]
Peptide purification procedure
B. subtilis was grown in 300 mL liquid LB medium containing kanamycin (10 mg/L) and incubated at 180 r/min, 37 °C for 72 h. The supernatant was collected by centrifugation at […]
10,000× g for 25 min at 4°C. […]
Pathogenecity assay equation
C. michiganensis disease grading criteria are as follows, grade 0: no wilting or stem necrosis of leaves (or cotyledons); grade 1: mild yellowing or wilting of leaves (or cotyledons); grade 2: moderate wilting or wilting of leaves (or cotyledons) and mild necrosis of stem; Grade 3: severe wilting of leaves (or cotyledons) or severe necrosis of stem; Grade 4: plant death. The formulas for incidence rate, disease index and control efficacy are as follows: Incidence rate

[17] = system: Xanthomonas campestris pv. Holcicola; assay type: cell-based
[18] = system: X. oryzae pv. oryzae; assay type: cell-based, Xanthomonas oryzae pv. oryzae; conditions: purified peptide, 96-well plate, LB, 28 °C, 12 h
[19] = system: R. solani; assay type: cell-based, Rhizoctonia solani
[20] = system: B. cinerea; assay type: cell-based, Botrytis cinerea
[21] = system: C. michiganensis, C. fangii, X. oryzae pv. oryzae and X. oryzae pv. oryzicola; assay type: physicochemical; conditions: read-out agar diffusion test; for antibacterial activity after heat treatment (thermal stability), 4–75 °C: heated 30 min at 25, 50, 75 °C (4 °C control); for antibacterial activity after heat treatment (thermal stability), 100 °C: heated at 100 °C for 30 min

| Substance | antimicrobial diameter (bacteriostatic spectrum) [1] [cm] | antimicrobial diameter (bacteriostatic spectrum) [3] [cm] | antimicrobial diameter (bacteriostatic spectrum) [6] [cm] | inhibition of mycelia growth (in words) [7] | antibacterial activity after UV treatment (UV stability) [8] | cell membrane damage by SEM [9] | cell membrane damage by SEM [11] | antimicrobial diameter (bacteriostatic spectrum) [12] [cm] | bacterial growth in time-kill curve [15] | Incidence (%) [16] | Disease Index [16] | Control Efficacy (%) [16] | inhibition of bacterial growth (in words) [17] | inhibition of mycelia growth (in words) [19] | inhibition of mycelia growth (in words) [20] | antibacterial activity after heat treatment (thermal stability), 4–75 °C [21] | antibacterial activity after heat treatment (thermal stability), 100 °C [21] | also measured |
| --- | --- | --- | --- | --- | --- | --- | --- | --- | --- | --- | --- | --- | --- | --- | --- | --- | --- | --- |
| LAVHHLHSIRGRHHSCTIAQTQANHRHNSYQPNNSSCLAKETDLPTTRSTPATTSSTAPARKSPPASPAPTRQRLCPSPPRGPVSSRHPRRRGQARGRTRAAGVRRTKGYGGKCV [CgR2150, 115-residue antimicrobial peptide from C. globosum cDNA library, expressed and secreted by B. subtilis SCK6] | 1.19 ± 0.033 | 1.21 ± 0.037 | 1.39 ± 0.036 | significantly inhibit the mycelia growth | stable bacteriostatic activity | severely damaged, with obvious gaps and ruptures | significantly shrunken and morphologically abnormal | 1.29 ± 0.034 | hardly grew | 13.33 c % | 5.83 | 92.56 b % | significantly inhibit the growth | significantly inhibit the mycelia growth | significantly inhibit the mycelia growth | obvious antibacterial activity | lost their activity | MIC, range over the five tested bacteria [2]: 10 to 25 µg/mL; hemolytic activity [4]: 0.32%; MIC [5]: 18 µg/mL; MIC [10]: 10 µg/mL; MIC [13]: 25 µg/mL; MIC [14]: 15 µg/mL; MIC [18]: 10 µg/mL |
| LAVPNFEPPTRTTCPAPTSPGNPCGPPPPASQTRRPPFHPTSPLRR (cysteines drawn unpaired) [CgR3101] | 1.04 ± 0.033 | 1.15 ± 0.029 | 1.19 ± 0.036 | significantly inhibit the mycelia growth | stable bacteriostatic activity | severely damaged, with obvious gaps and ruptures | significantly shrunken and morphologically abnormal | 1.26 ± 0.024 | hardly grew | 16.67 b % | 7.50 b | 90.43 c % | significantly inhibit the growth | significantly inhibit the mycelia growth | significantly inhibit the mycelia growth | obvious antibacterial activity | lost their activity | – |
| Polymyxin B [reference compound] | – | – | – | – | – | – | – | – | – | 10.00 d % | 3.33 c | 95.75 a % | – | – | – | – | – | – |

Reference: PMC9099842, “Isolation of Potato Endophytes and Screening of Chaetomium globosum Antimicrobial Genes” (International Journal of Molecular Sciences, 2022)
